Two molecules from US9395375B2, “Method of treating sigma 1 receptor-expressing tumors with interleukin 24” (Research Foundation of the City University of New York, priority 2013, dated 2016) can be followed below.

For data set [1], the system named is metastatic prostate cancer cell lines (LNCaP, DU145 and PC-3). In words: AnnexinV-FITC/PI apoptosis assay after Ad.IL-24 infection with or without S1R agonist. Format: cell-based, human. The note with it: for apoptosis by Ad.IL-24 (summary statements): prostate cancer cells, effect of S1R agonist. An excerpt: (§1) Referring to FIG. 1A, FIG. 1B and FIG. 1C, to test this hypothesis Ad.IL-24 was used to treat normal human immortalized epithelial cells (RWPE1), and three metastatic prostate cancer cell lines (LNCaP, DU145 and PC-3) in the presence or absence of the specific S1R agonist, (+)SKF-10047, and measured cell viability and induction of apoptosis by MTT, clonogenic, and AnnexinV-FITC/PI assays. (+)SKF-10047 inhibited Ad.IL-24-mediated killing in PC-3, LNCaP and DU145 cells.
(§2) In FIG. 1A, cells were infected with 100 pfu/cell of Ad.vector or Ad.IL-24, and treated with or without 10 μM (+)-SKF10047—a S1R agonist. Cell viability was determined by MTT assay 4 days post-infection. MTT absorbance of untreated control cells was set at 1 to determine relative number of viable cells. […] In FIG. 1B, cells were incubated in the absence or presence of 10 μM (+)-SKF10047 after infection with Ad.IL-24. Forty-eight hours post-infection, percentage of apoptosis was determined by staining with AnnexinV-FITC/PI. […] In FIG. 1C, cells were incubated in the absence or presence of 10 μM (+)-SKF10047 after infection with Ad.IL-24. Cells were subjected to clonogenic assay for 2 weeks. Results shown are an average of three independent experiments ±SD.
Annexin V binding assays. Cells were trypsinized, washed once with complete medium and PBS, resuspended in 0.5 ml of binding buffer containing 2.5 mmol/L CaCl2, and stained with allophycocyanin-labeled Annexin V (Becton Dickinson Biosciences, Palo Alto, Calif.) and propidium iodide (PI) for 15 min at room temperature. Flow cytometry assays were performed as described in Sauane M, Su Z Z, Dash R, et al. “Ceramide plays a prominent role in MDA-7/IL-24-induced cancer-specific apoptosis” J Cell Physiol. 2010 March; 222(3):546-55.

Data set [2] deals with BiP, CHOP, and p-eIF2a proteins. In words: Western blot analysis of ER stress markers. In kind it is cell-based. The note with it: 100 pfu/cell Ad.IL-24 plus 10 μM (+)-SKF10047; 48 h. The protocol: Cells were infected with 100 pfu/cell of Ad.vector or Ad.IL-24, and treated with or without 10 μM (+)-SKF10047 (SKF) for indicated times. In FIG. 2A, changes in BiP, CHOP, and p-eIF2a proteins were evaluated by Western blot analysis 48 h after indicated treatments. […] Up-regulation by IL-24 of several ER stress markers is shown, including p-eIF2a, CHOP, and BiP, were inhibited by treatment with (+)SKF-10047.
Western Blot Analysis. Protein extracts were prepared with RIPA buffer containing a mixture of protease inhibitors as described in Sauane M, Su Z Z, Dash R, et al. “Ceramide plays a prominent role in MDA-7/IL-24-induced cancer-specific apoptosis” J Cell Physiol. 2010 March; 222(3):546-55. Fifty micrograms of protein was applied to a 12% SDS/PAGE and transferred to nitrocellulose membranes. The membranes were probed with polyclonal or monoclonal antibodies to IL-24, p-eIF2a, BiP, CHOP, Sigma 1 Receptor, and beta-actin.
(In general: A western blot detects proteins with antibodies after separation by electrophoresis.)

The test system of data set [3] is DU-145 cells. In words: Reactive oxygen species (ROS) generation, DCFH-DA fluorescence. Format: cell-based, human. The note with it: Ad.IL-24 plus 10 μM (+)SKF-10047 for 24 h. The procedure:
Intracellular ROS levels were measured with 10 μM DCF-DA 30 min after treatments. The results are expressed as the mean±S.D. of three independent experiments. The time course of mitochondrial changes (ROS generation) were determined after treatment of DU145 cells with Ad.IL-24. Cells were infected with Ad.IL-24, collected at 24 h, and stained for ROS production with dichlorofluorescin diacetate (DCFH-DA). […] Taken together, the inhibition by an S1R agonist of IL-24-mediated ER stress, Ca^++ mobilization and ROS production, further strengthen the hypothesis that IL-24 action in cancer cells is mediated by an antagonistic effect of IL-24 on S1R.
Assessment of reactive oxygen species (ROS) generation. DU-145 cells were seeded in 96-well plates at a concentration of 1×10^4 cells/well and were infected with Ad.IL-24 for 12 h. The cell cultures were treated with 10 μM 2,7-dichloro-fluorescein diacetate (DCFH-DA; Sigma-Aldrich, St. Louis, Mo.) in PBS for 30 min After incubation, the media was discarded, and the cells were washed with PBS. The fluorescence intensity was determined using a fluorescence plate reader at 485 nm for excitation and 530 nm for emission.

The test system of data set [4] is metastatic prostate cancer cell lines (LNCaP, DU145 and PC-3). Kind of data set: Clonogenic (colony formation) assay after Ad.IL-24 infection with or without S1R agonist. In kind it is cell-based, human. The following applies: Ad.IL-24 plus 10 μM (+)-SKF10047; 2 weeks.
Description: as §1, §2
Colony formation assays. Cells were infected with 100 pfu/cell with Ad.vector or Ad.IL-24. The next day, 200 to 500 cells were seeded to determine colony-forming ability. […]

Data set [5] has the same test system. In words: MTT cell viability assay after Ad.IL-24 infection with or without S1R agonist. In kind it is cell-based, human.
Description: as §1
as §2, with “Cells were subjected to clonogenic assay for 2 weeks. Results shown are an average of three independent experiments ±SD.” left out
MTT Assays. […] Cell growth and viable cell numbers were monitored by 3-(4,5 dimethylthiazol-2-yl)-2,5-diphenyltetrazolium bromide (MTT) staining as described in Sauane M, Su Z Z, Dash R, et al. “Ceramide plays a prominent role in MDA-7/IL-24-induced cancer-specific apoptosis” J Cell Physiol. […]

Data set [6] has as its system prostate DU145. In words: Calcium imaging (Fura-2), cytosolic calcium. In kind it is cell-based, human. The following applies: Ad.IL-24 plus 10 μM (+)-SKF10047, 12 hours. The protocol:
FIG. 2B depicts a ratio of calcium ratios for cells infected with 100 pfu/cell of Ad.vector or Ad.IL-24, and treated with or without 10 μM (+)-SKF10047. The ratios are the levels cytosolic calcium at T=0 and T=12 hours. A determination was made concerning whether Ad.IL-24 caused any changes in the cytosolic levels of Ca^++ in prostate cancer cells and if Ca^++ mobilization is S1R-dependent after Ad.IL-24 infection. Ad.IL-24 infection increased cytosolic Ca^++ levels in prostate DU145 within 12 hours. The increase in Ca^++ was blocked by S1R agonist (+)-SKF10047.
Calcium imaging. For Calcium (Ca^++) imaging, cells were plated in 35 mm glass bottom petri dishes (MatTek) and allowed to attach for 12 h prior to treatment(s). Inhibitors were added 4 h after infection with adenovirus. After 12 h, cells were then rinsed with a Ringer's solution maintained at 37° C. Cells were then incubated in Ringer's solution containing 0.5 μM Fura-2 tetra-acetoxymethyl ester (Fura-2) (Molecular Probes), 10% Pluronic F127 and 250 μm sulfinpyrazone (Sigma-Aldrich, Inc) for 40 min at 22° C. Fura-2 was excited by alternating 340 and 380 nm light and images were obtained every 50 ms as a measure of Ca^++ concentration. Background intensity was zero. […]

Data set [7] deals with T1, S1R (Homo sapiens, UniProt Q99720).
T1 construct: DU-145 cells were infected with Ad.IL-24; endogenous in cells; host or cells: DU145 cells (ATCC), infected with Ad.IL-24 or Ad.vector
In words: Co-immunoprecipitation of S1R with IL-24. The note with it: 100 pfu/cell Ad.IL-24, 48 hours. Format: binding. The protocol:
In FIG. 3A, DU145 cells were infected with 100 pfu/cell of Ad.vector or Ad.IL-24 and immunoprecipitation analysis was done 48 hours later using S1R antibody.
In FIG. 3B, DU-145 cells were infected with 100 pfu/cell of Ad.vector or Ad.IL-24 and immunoprecipitation analysis was done 48 hours later using IL-24 antibody.
Co-immunoprecipitation of S1R with IL-24. Cells were infected with Ad.vector or Ad.IL-24. After 48 hours, protein was extracted from subconfluent cultures using lysis buffer (Pierce, Rockford, Ill.) containing 1 mM phenylmethlsulfonylfluoride (Sigma-Aldrich, Inc) and quantified using the BCA protein assay kit (Pierce, Rockford, Ill.). Antibodies were conjugated to Protein-G beads according, the Sigma Protein-G Immunoprecipitation Kit manufacturer's instructions (Sigma-Aldrich, Inc). Western blot analysis was done as described before using the following primary antibodies at 1:1,000 dilutions: anti-IL-24, and anti-S1R. Secondary antibodies specific for heavy chain of immunoglobulin G (IgG) were used as the light chain of IgG interfered with detection of IL-24 because of similar size.

The target of data set [8] is T1, S1R. In words: Immunofluorescence co-localization of IL-24 and S1R. Format: cell-based. The note with it: DU145 cells infected with Ad.IL-24; 24 h; confocal immunofluorescence. The protocol: In FIG. 3A and FIG. 3B, comparative co-localization of IL-24 and S1R proteins was analyzed in DU145 cells after infection with the Ad.IL-24 virus. […] DU-145 cells were infected with Ad.IL-24. After 24 h, cells were fixed and IL-24 and S1R proteins were detected by immunofluorescence using anti-IL-24 and anti-S1R antibodies. The analysis of co-localization of IL-24 and S1R was performed using a DMI6000B inverted confocal microscope with TCS SP5 system (Leica Microsystems CMS). Without wishing to be bound to any particular theory, S1R is believed to interact with IL-24.
Immunofluorescence. Cells were seeded onto chamber slides (Falcon; BD Biosciences, San Jose, Calif.) and maintained in DMEM with 10% fetal bovine calf serum, 24 hours postinfection, cells were fixed with 2% paraformaldehyde, permeabilized by 0.1% Triton X-100, and then incubated with primary antibodies: IL-24, and S1R. Controls were incubated with only the secondary antibodies under the same experimental conditions.

T1 sequence (Q99720 whole entry): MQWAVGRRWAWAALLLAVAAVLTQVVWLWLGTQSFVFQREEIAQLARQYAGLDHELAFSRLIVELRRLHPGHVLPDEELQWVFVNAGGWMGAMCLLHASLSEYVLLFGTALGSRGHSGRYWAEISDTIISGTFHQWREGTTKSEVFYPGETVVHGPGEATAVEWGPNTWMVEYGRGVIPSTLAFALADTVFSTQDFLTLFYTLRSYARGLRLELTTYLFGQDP

Regarding (+)-SKF10047, the “cytotoxic effect of Ad.IL-24, percentage of apoptosis by AnnexinV-FITC/PI (FIG. 1B)” value in data set [1] (Ad.IL-24 plus 10 μM (+)-SKF10047, 48 hours post-infection) is given as “substantially negated”. Besides, the “apoptosis by Ad.IL-24 (summary statements)” value is given as “inhibits” in data set [1] and “blocks” in data set [1] (listed as (+) SK-10047). The “Up-regulation by IL-24 of ER stress markers p-eIF2a, CHOP, and BiP (FIG. 2A)” value in data set [2] is “inhibited”. For the same molecule, the “Ad.IL-24 increased ROS (FIG. 2C)” value in data set [3] is “inhibited”. The “cytotoxic effect of Ad.IL-24, clonogenic assay (FIG. 1C)” value in data set [4] was “substantially negated”. Besides, the “cytotoxic effect of Ad.IL-24, cell viability by MTT (FIG. 1A)” value in data set [5] (100 pfu/cell Ad.IL-24 plus 10 μM (+)-SKF10047, 4 days post-infection) is “substantially negated”. Also, the Ad.IL-24-mediated killing result in data set [5] (PC-3, LNCaP and DU145 cells, viability and apoptosis by MTT, clonogenic and AnnexinV-FITC/PI assays, effect of S1R agonist) was “inhibited”. Moreover, the “increase in Ca++ after Ad.IL-24 infection (FIG. 2B)” value in data set [6] is recorded as “blocked”.

B1: IL-24: member of the IL-10 cytokine family, immunomodulatory cytokine generated from Ad.IL-24 infection (protein, UniProt Q13007 52-206, looked up)
Interleukin-24: QEFHFGPCQVKGVVPQKLWEAFWAVKDTMQAQDNITSARLLQQEVLQNVSDAESCYLVHTLLEFYLKTVFKNYHNRTVEVRTLKSFSTLANNFVLIVSQLQPSQENEMFSIRDSAHRRFLLFRRAFKQLDVEAALTKALGEVDILLTWMQKFYKL
Consider B1, for which the “interaction with S1R: immunoprecipitation using anti-S1R antibody, immunoblotting with anti-IL-24 antibody (FIG. 3A)” value in data set [7] (DU145 cells) was “physical interaction”. Besides, the “interaction with S1R: immunoprecipitation using anti-IL-24 antibody, probed with anti-S1R antibody (FIG. 3B)” value in data set [7] (DU-145 cells) was “coimmunoprecipitated”. Moreover, in data set [8], the “co-localization with S1R” value was “co-localized”.
